Test results: ChEMBL document CHEMBL1201862, “PubChem BioAssay data set” (2004)
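Briefly, cells in 96-well plates were exposed to five compound concentrations for 48 h, and endpoints were estimated by linear interpolation. GI50 marks 50% less growth.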 The source made the active and inactive calls. Cut-off read from the data, not from the text of the source: active = GI50 up to about 1.1 µM and inactive = higher.

How the values were obtained:
Test in all cases: NCI tumour cell line growth inhibition, 48 h
786-0 = test system: 786-0
BT-549 = test system: BT-549
EKVX = test system: EKVX
HCT-116 = test system: HCT-116
HOP-62 = test system: HOP-62
HT-29 = test system: HT-29
Hs-578T = test system: Hs-578T
IGROV-1 = test system: IGROV-1
K562 = test system: K562
NCI-H23 = test system: NCI-H23
NCI-H460 = test system: NCI-H460
NCI-H522 = test system: NCI-H522
OVCAR-3 = test system: OVCAR-3
PC-3 = test system: PC-3
SF-268 = test system: SF-268
SK-MEL-2 = test system: SK-MEL-2
SR = test system: SR
UACC-257 = test system: UACC-257
UACC-62 = test system: UACC-62
UO-31 = test system: UO-31

Structure (SMILES)	GI50 (786-0)	GI50 (BT-549)	GI50 (EKVX)	GI50 (HCT-116)	GI50 (HOP-62)	GI50 (HT-29)	GI50 (Hs-578T)	GI50 (IGROV-1)	GI50 (K562)	GI50 (NCI-H23)	GI50 (NCI-H460)	GI50 (NCI-H522)	GI50 (OVCAR-3)	GI50 (PC-3)	GI50 (SF-268)	GI50 (SK-MEL-2)	GI50 (SR)	GI50 (UACC-257)	GI50 (UACC-62)	GI50 (UO-31)
Oc1ccc(-c2nc(-c3cccnc3)c(-c3ccc(Cl)cc3)[nH]2)cc1	13.6 µM (inactive)	15.3 µM (inactive)	13.2 µM (inactive)	13.4 µM (inactive)	16.9 µM (inactive)	15.2 µM (inactive)	19.4 µM (inactive)	10.9 µM (inactive)	10.5 µM (inactive)	13 µM (inactive)	11.1 µM (inactive)	10.3 µM (inactive)	12.5 µM (inactive)	5.58 µM (inactive)	14.6 µM (inactive)	18.2 µM (inactive)	5.43 µM (inactive)	16.1 µM (inactive)	12.9 µM (inactive)	10.8 µM (inactive)
Nc1ncnn2c(C3OC(CO)C(O)C3O)ccc12 (stereo not given)	0.0766 µM (active)	0.175 µM (active)	0.366 µM (active)	0.0216 µM (active)	0.261 µM (active)	0.148 µM (active)	0.0875 µM (active)	0.21 µM (active)	0.163 µM (active)	0.137 µM (active)	0.097 µM (active)	0.237 µM (active)	0.169 µM (active)	0.182 µM (active)	0.236 µM (active)	0.148 µM (active)	0.0364 µM (active)	0.0703 µM (active)	0.136 µM (active)	0.12 µM (active)
CC(=O)Nc1ccc2c3c(cc(O)c2c1)N(C(=O)CCCCCC(=O)Nc1ccc2c4c(cc(O)c2c1)N(C(=O)OC(C)(C)C)CC4CCl)CC3CCl (stereo not given)	2.04 µM (inactive)	1.87 µM (inactive)	41.9 µM (inactive)	1.67 µM (inactive)	1.81 µM (inactive)	3.15 µM (inactive)	3.94 µM (inactive)	8.05 µM (inactive)	3.3 µM (inactive)	0.8 µM (active)	0.625 µM (active)	1.05 µM (active)	1.57 µM (inactive)	2.99 µM (inactive)	0.646 µM (active)	1.76 µM (inactive)	0.118 µM (active)	3.37 µM (inactive)	1.39 µM (inactive)	> 100 µM (inactive)
COC(=O)[C@]12CC=C3O[C@@H]4OC5(CCCCC5)O[C@@H]4[C@H]3C1C(=O)C=CC2=O (stereo not given in full)	17 µM (inactive)	19.2 µM (inactive)	33.2 µM (inactive)	17.5 µM (inactive)	21 µM (inactive)	17.9 µM (inactive)	26.1 µM (inactive)	18.4 µM (inactive)	14.6 µM (inactive)	17.1 µM (inactive)	22.3 µM (inactive)	5.53 µM (inactive)	8.81 µM (inactive)	24.9 µM (inactive)	3.97 µM (inactive)	22.2 µM (inactive)	22.3 µM (inactive)	16.3 µM (inactive)	16 µM (inactive)	17 µM (inactive)
Cc1nnc2n1N=C(c1cc(F)c(Cl)cc1Cl)/C(=C/c1ccc(-c3ccc([N+](=O)[O-])cc3)o1)S2	78.3 µM (inactive)	58.2 µM (inactive)	> 100 µM (inactive)	46.1 µM (inactive)	> 100 µM (inactive)	69.2 µM (inactive)	> 100 µM (inactive)	> 100 µM (inactive)	31.8 µM (inactive)	34.3 µM (inactive)	> 100 µM (inactive)	32.7 µM (inactive)	> 100 µM (inactive)	47.4 µM (inactive)	> 100 µM (inactive)	42.6 µM (inactive)	34.2 µM (inactive)	> 100 µM (inactive)	> 100 µM (inactive)	85.3 µM (inactive)
Cc1cccc2c1NC(=S)[C@@H]1CCCN1C2=O	> 100 µM (inactive)	> 100 µM (inactive)	> 100 µM (inactive)	> 100 µM (inactive)	> 100 µM (inactive)	> 100 µM (inactive)	> 100 µM (inactive)	> 100 µM (inactive)	> 100 µM (inactive)	> 100 µM (inactive)	> 100 µM (inactive)	> 100 µM (inactive)	> 100 µM (inactive)	> 100 µM (inactive)	> 100 µM (inactive)	> 100 µM (inactive)	> 100 µM (inactive)	> 100 µM (inactive)	> 100 µM (inactive)	> 100 µM (inactive)
